BindingDB's records for doi:10.1002/cbic.201200206 (Frederick National Laboratory For Cancer Research, 2012)

Molecular target: Serine/threonine-protein kinase PLK1 (Homo sapiens, UniProt P53350)
Experiment: Binding Assay
Source text: […] PDB fluorescence polarization competition binding assay using Plk.

Serine/threonine-protein kinase PLK1, sequence (P53350 whole entry): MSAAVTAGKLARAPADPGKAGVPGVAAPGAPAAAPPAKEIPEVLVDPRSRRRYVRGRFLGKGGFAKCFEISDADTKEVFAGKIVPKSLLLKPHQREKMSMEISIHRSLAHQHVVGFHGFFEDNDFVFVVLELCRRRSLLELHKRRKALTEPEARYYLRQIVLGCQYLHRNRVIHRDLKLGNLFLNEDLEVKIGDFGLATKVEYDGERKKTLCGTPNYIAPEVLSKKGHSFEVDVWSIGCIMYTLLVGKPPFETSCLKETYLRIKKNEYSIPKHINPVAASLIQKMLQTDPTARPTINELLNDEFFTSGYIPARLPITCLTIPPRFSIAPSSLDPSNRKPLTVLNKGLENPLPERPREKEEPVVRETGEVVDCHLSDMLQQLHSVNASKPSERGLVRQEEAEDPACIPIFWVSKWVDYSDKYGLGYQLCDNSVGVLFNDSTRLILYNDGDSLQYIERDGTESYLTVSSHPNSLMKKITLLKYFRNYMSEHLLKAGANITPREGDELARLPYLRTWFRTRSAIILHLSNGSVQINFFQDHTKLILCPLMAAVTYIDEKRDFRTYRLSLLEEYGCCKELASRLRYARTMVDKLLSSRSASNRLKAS

`CC(=O)N(CCCCc1ccccc1)CC(=O)N[C@H](CC(C)C)C(=O)N[C@H](Cc1cnc[nH]1)C(=O)N[C@H](CO)C(=O)N[C@@H](C(N)=O)[C@@H](C)CP(=O)(O)O` [Peptide-peptoid hybrid, 13] gave an IC50 of 71 nM.
